According to US10233146B2, “Acetylenic cyanoenones as therapeutics for inflammation and carcinogenesis” (THE RESEARCH FOUNDATION FOR THE STATE UNIVERSITY OF NEW YORK, priority 2015, dated 2019):
Several values for one entry are separate records, joined by “and”; a condition that tells them apart may be missing. Equal entries are not always repeated. Entries after “also recorded” stand apart in the source; their conditions may differ. Where two headings read alike, the source gives them in different places.

Legend:
[1] = UV study of Michael adduct formation with DTT; type: physicochemical; settings: for A (absorbance) With DTT (1 equiv) / λmax With DTT (1 equiv) / A (absorbance) With DTT (10 equiv) / λmax With DTT (10 equiv): 0.1 mM compound, phosphate buffer saline-1% ethanol (pH 7.4), rt; for A (absorbance) With DTT (1 equiv) / λmax With DTT (1 equiv): 0.1 mM DTT; for A (absorbance) With DTT (10 equiv) / λmax With DTT (10 equiv): 1 mM DTT; for K (equilibrium constant): 0.1 mM of compound with 0.1 mM of DTT
Description: Calculation of Approximate Equilibrium Constant (K)
The concentrations of 3, with initial concentration of 0.1 mM, and DTT, with initial concentration of 0.1 mM, in the phosphate buffer are calculated to be 0.0855 mM as follows: (1) The absorbance (A) is 0.956 at 0.1 mM concentration of 3 in deionized water. (2) The A of 3 is 0.817 in the phosphate buffer. (3) The concentrations of 3 and DTT in the buffer are calculated to be 0.0855 mM based on (1) and (2). From these concentrations, the approximate K is calculated as follows: K=[Adduct]/[3]×[DTT]=0.0145×10^−3/[…]=2.0×10^3 (Liters/mol).
Unfortunately, since the λmax of 4-8 was not observed due to the overlapping, we can't calculate the concentrations of the adducts of 4-8 by the same method as for 3. However, since we can speculate that the ε of the adducts of 4-8 is almost similar to that of the adduct of 2, we can calculate the concentrations of the adducts of 4-8 based on the A (0.227 at 0.0145 mM) of the adduct of […] and the A of the adducts of 4-8. For example, the concentration of the adduct of 5 is 0.0145×0.369 (A of the adduct of 5)/0.227=0.0235 (mM). Therefore, the concentrations of 5 and DTT are 0.0765 (mM/each). Thus, K of 5=0.0235×10^−3/0.0765×0.0765×10^−6=4.0×10^3 (Liters/mol). The K of 4 and 6-8 are also calculated using the A (0.227 at 0.0145 mM) of the adduct of 3 and the A of the adducts of 4 and 6-8, respectively.
Chemical reactivity of monocyclic, bicyclic, and tricyclic compounds 4-15 as Michael acceptors was evaluated using UV spectroscopy.
Michael reaction between ethynylcyanodienones with DTT give adducts IV (Scheme 11). Since adducts IV have different UV absorption spectra (λmax 330-380 nm) from those of the corresponding ethynylcyanodienones (λmax 230-320 nm), UV spectroscopy can clarify whether or not the Michael adducts are produced.^6
(§1) 1. UV Studies on Monocyclic and Bicyclic Compounds 4-9 with DTT Compounds 5-8 with DTT gave similar UV spectra to those of 3 (Taylor, S. K. et al. 1988). Compounds 5-8 have local maximum absorptions at 332-338 nm upon the addition of DTT (1 and 10 equiv) under dilute (0.1 mM of the compounds) and neutral aqueous conditions (pH 7.4 phosphate buffered saline-1% ethanol containing 1 mM KH2PO4, 5.6 mM Na2HPO4, and 154 mM NaCl) (Table 1 and FIG. 2). Also, these compounds react with a chloride anion (a much weaker nucleophile than a sulfhydryl group of DTT), which is contained in the buffer solution, to give Michael adducts whose local maximum absorptions are observed at 320-326 nm.
We have calculated approximate equilibrium constants (K) of these Michael reactions in the solutions of 5-8 with DTT (each initial concentration, 0.1 mM. See the calculation of the equilibrium constants in the Supporting Information). The values of K are approximately 1.0-4.2×10^3 (L/mol), implying that these additions are very strongly favored.
Tricyclic compounds 10-15 react with DTT to give the adducts whose local maximum absorptions are observed at 374-383 nm range (Table 1 and FIG. 2). […] Among phenanthrene derivatives, substitutents at C5 decrease the reactivity.

NQO1 = assay: Induction of NQO1 in Hepa1c1c7 murine hepatoma cells; type: cell-based; settings: for EC (2-fold NQO1 activity): Hepa1c1c7 cells, 48 h treatment, read-out: NQO1 CD (concentration required to double the specific enzyme activity of NQO1); for magnitude of NQO1 induction at higher concentrations: FIG. 3, concentrations higher than the CD values
Source text: In this assay, the concentration required to double (CD value) the specific enzyme activity of NQO1 is used to quantify inducer potency. […] Dinkova-KOstova, A. T. et al. 2012). […] These compounds may be more robust inducers than monocyclic compounds. [table]

[2] = UV study of Michael adduct formation with chloride anion of the buffer (without DTT); type: physicochemical; settings: 0.1 mM compound, phosphate buffer saline-1% ethanol (pH 7.4)
Description: as §1, with “nm. […]” for “nm.”

| SMILES | IC50 (iNOS) | A (absorbance) With DTT (1 equiv) [1] | λmax With DTT (1 equiv) [1] | A (absorbance) With DTT (10 equiv) [1] | λmax With DTT (10 equiv) [1] | K (equilibrium constant) [1] | approximate equilibrium constant K (calculation) ([1]; initial 0.1 mM compound and 0.1 mM DTT, phosphate buffer) | melting point | EC (2-fold NQO1 activity) (NQO1; Mus musculus, Hepa-1c1c7) | A (absorbance) Without DTT (With Cl^—) [2] | λmax Without DTT (With Cl^—) [2] | approximate equilibrium constant K of Michael reaction with DTT ([1]; each initial concentration 0.1 mM) | magnitude of NQO1 induction at higher concentrations (NQO1) | EC (2-fold NQO1 activity) (NQO1) |
| --- | --- | --- | --- | --- | --- | --- | --- | --- | --- | --- | --- | --- | --- | --- |
| C#CC1(C=C)C=CC(=O)C(C#N)=C1 (stereo not shown) [Compound 5, 3-Ethynyl-6-oxo-3-vinylcyclohexa-1,4-dienecarbonitrile] | 16 nM | 0.369 | 335 nm | 0.481 | 338 nm | 4000 L/mol | 4000 L/mol | 76 to 77 °C | 0.02 µM | 0.197 | 326 nm |  |  |  |
| C[S+]([O-])CCCCN=C=S (stereo not shown) [Sulforaphane, reference compound] | 400 nM |  |  |  |  |  |  |  | 0.2 µM |  |  |  |  |  |
| C#CC12C=C(C#N)C(=O)C=C1c1c(Br)cccc1CC2 (stereo not shown) [Compound 12, 5-Bromo-10a-ethynyl-3-oxo-3,9,10,10a-tetrahydrophenanthrene-2-carbonitrile] | 650 nM |  |  |  |  |  |  | 202 to 205 °C | 1.3 µM |  |  |  |  |  |
| C#CC1(C#C)C=CC(=O)C(C#N)=C1 [Compound 4, 3,3-Diethynyl-6-oxocyclohexa-1,4-dienecarbonitrile] | 210 nM | 0.614 | 330 nm | 0.510 and 0.439 | 333 nm and 250 nm | 10600 L/mol |  | 110 to 111 °C | 0.18 µM | 0.635 | 328 nm | ~10600 L/mol |  |  |
| C#CC1(CC)C=CC(=O)C(C#N)=C1 (stereo not shown) [Compound 6, 3-Ethyl-3-ethynyl-6-oxocyclohexa-1,4-dienecarbonitrile] |  | 0.135 | 332 nm | 0.353 | 335 nm | 1000 L/mol |  | 73 to 75 °C | 0.042 µM | 0.036 | 320 nm |  |  |  |
| C#CC12C=C(C#N)C(=O)C=C1c1ccccc1C2 (stereo not shown) [Compound 14, 9a-Ethynyl-3-oxo-9,9a-dihydro-3H-fluorene-2-carbonitrile] | 480 nM | 0.808 | 377 nm | 0.820 | 382 nm |  |  | 202 to 203 °C | 0.041 µM | 0.867 | 364 nm |  | induce NQO1 more effectively than monocyclic compounds 3-6; also recorded: induces NQO1 to a greater magnitude than 3 and 5 |  |
| C#CC12C=C(C#N)C(=O)C=C1c1c(Cl)cccc1CC2 (stereo not shown) [Compound 11, 5-Chloro-10a-ethynyl-3-oxo-3,9,10,10a-tetrahydrophenanthrene-2-carbonitrile] |  | shoulder | 380 nm | 0.262 | 380 nm |  |  | > 230 °C | 0.9 µM |  |  |  | induce NQO1 more effectively than monocyclic compounds 3-6 |  |
| C#CC1(C)C=C(C#N)C(=O)c2ccccc21 (stereo not shown) [Compound 9, 4-Ethynyl-4-methyl-1-oxo-1,4-dihydronaphthalene-2-carbonitrile] |  | 0.848 | 331 nm | 0.872 | 333 nm |  |  |  | 0.22 µM | 0.831 | 321 nm |  |  |  |
| C#CC12C=C(C#N)C(=O)C=C1C(C)(C)CC2 (stereo not shown) [Compound 8, 3a-Ethynyl-1,1-dimethyl-6-oxo-2,3,3a,6-tetrahydro-1H-indene-5-carbonitrile] | 200 nM | 0.376 | 333 nm | 0.472 | 337 nm | 4200 L/mol |  |  | 0.1 µM | 0.279 | 324 nm |  |  |  |
| C#CC12C=C(C#N)C(=O)C=C1c1ccccc1CC2 (stereo not shown) [Compound 10, 10a-Ethynyl-3-oxo-3,9,10,10a-tetrahydrophenanthrene-2-carbonitrile] |  | shoulder | 380 nm | 0.723 | 382 nm |  |  | 209.5 to 211 °C | 0.15 µM |  |  |  | induce NQO1 more effectively than monocyclic compounds 3-6 |  |
| C#CC12C=C(C#N)C(=O)C=C1c1c(C)cccc1CC2 (stereo not shown) [Compound 13, 10a-Ethynyl-5-methyl-3-oxo-3,9,10,10a-tetrahydrophenanthrene-2-carbonitrile] | 940 nM |  |  | 0.279 | 374 nm |  |  | 195.5 to 197 °C | 1.8 µM |  |  |  |  |  |
| C#CC12C=C(C#N)C(=O)C=C1CCC2 (stereo not shown) [Compound 7, 3a-Ethynyl-6-oxo-2,3,3a,6-tetrahydro-1H-indene-5-carbonitrile] | 160 nM | 0.281 | 333 nm | 0.355 | 337 nm | 2700 L/mol |  | 107 to 108 °C | 0.056 µM | 0.151 | 324 nm |  | induce NQO1 more effectively than monocyclic compounds 3-6 |  |
| C#CC12C=C(C#N)C(=O)C=C1c1c(Cl)cccc1C2 (stereo not shown) [Compound 15, 5-Chloro-9a-ethynyl-3-oxo-9,9a-dihydro-3H-fluorene-2-carbonitrile] | 800 nM | 0.819 | 378 nm | 0.803 | 383 nm |  |  | 191 to 193 °C | 0.13 µM | 1.025 | 369 nm |  |  |  |
| CC1(C)CC[C@]2(C(=O)O)CC[C@]3(C)[C@H](C(=O)C=C4[C@@]5(C)C=C(C#N)C(=O)C(C)(C)[C@@H]5CC[C@]43C)[C@@H]2C1 [CDDO, reference compound] | 23 nM |  |  |  |  |  |  |  |  |  |  |  |  | 0.0023 µM |
